Patent US20240361265A1, “APPARATUS AND METHODS FOR EXTRACELLULAR IMPEDANCE SPECTROSCOPY OF BARRIER CELLS” (Georgia Tech Research Corporation, priority 2023, published 2024)

What was measured:
iPSC-derived RPE = experiment: Combined intracellular pipette and EIS (3P-EIS) recording of iPSC-RPE response to apical ATP in modified Ussing chamber; type: cell-based, human; details: for membrane-specific capacitance changes: apical ATP stimulation
Method: Human iPSC-RPE cells. The study performed the protocol for induced pluripotent stem cell (iPSC) differentiation described in [29]. Briefly, for each individual iPSC line, somatic cells (blood or fibroblasts) were isolated from a single donor and were reprogrammed using the Sendai virus or episomal reprograming methods. Reprogramed iPSC colonies were differentiated into RPE using the protocol described by Sharma et al.. iPSC-derived RPE cells were seeded onto Corning 3406 Transwells, with a seeding density of 300,000 cells/cm^2 and 250,000 cells/cm^2 and were measured at approximately 300 days old. Fully-mature RPE cells were characterized with a transmission electron microscope (TEM) for morphology, gene expression, and immunostaining for RPE-specific markers. For iPSC genotype, TaqMan genotyping assays (ThermoFisher) were used. The following probes were tested: rs1061170 (Assay ID: AHI1TPW; 4331349); rs2230199 (Assay ID: C_26330755_10; 4351379). SNP rs10490924 (Assay ID: C_29934973_20; 4351379). Two human donors were used to derive iPSC-RPE for this experiment. Samples 1 and 2 were derived from donor A, and sample 3 was derived from donor B.
Tissue mounting and maintenance. The study performed the method for mounting the tissue into the modified Ussing chamber for electrophysiology described in [32]. Briefly, a 7 mm diameter, circular section of the iPSC-RPE Transwell was punched out, mounted, and sealed into the chamber, apical side up. Electrical current leak, due to poor sealing between the Ussing chamber and the Transwell punch-out, was minimized by placing a nylon mesh insert beneath the sample so that the iPSC-RPE made contact around the entire circumference of the chamber. The total exposed tissue cross-section was approximately 0.11 cm^2. Experimental solutions were perfused across both sides of the tissue for the entire duration of the experiment.
Electrophysiological solution. The standard, control solution was the same modified Ringer's solution as has been described previously. In brief, the solution contains (in mM): 5 KCl, 116.5 NaCl, 23 NaHCO3, 0.5 MgCl2, 1.8 CaCl2, 2 taurine, 5 glucose, and 10 sucrose. All salts (except for CaCl2) were mixed into de-ionized water at room temperature (20 C). The solution was bubbled for approximately 5 minutes with 95% CO2 before the addition of CaCl2. […] During an experiment, the solution was continuously bubbled with a custom gas mixture (5% CO2, 10% 02, and 85% N2) to maintain the Ringer's solution to a pH near 7.4±0.1.
Measurement Setup and Electrode Configuration. To measure the apical and basolateral bath voltages, Ringer-filled 3.5% agar bridges were connected to saturated KCl baths with submerged, double-junction AgCl reference electrodes (Fisher Scientific, Accumet, cat. No. 13-620-855). AgCl-coated Ag wires (0.01″ diameter) were submerged directly into the apical and basolateral baths to apply current across the tissues during galvanostatic measurements. The Ussing chamber was rotated approximately 30 degrees from horizontal during each experiment to simultaneously enable equal fluidic pressures across the epithelia while simultaneously allowing for apical bath access for intracellular pipettes.
The study performed the protocol for inserting a pipette into the cell's cytoplasm (FIG. 5C, node 3) for intracellular recordings described in [32]. Briefly, a LabVIEW-based controller was used to insert a pipette—backfilled with 150 mM NaCl—into the cytoplasm of a single cell using an N-565.260 piezoelectric motor connected to an E-861.1A1 single-axis controller box (Physik Instrumente). The pipette voltage was amplified using a Multiclamp 700B (Molecular Devices) amplifier, and the trans-epithelial potential (TEP) signal was amplified using a VCC 600 (Physiologic Instruments). The primary output of the Multiclamp 700B had the settings: 10 mV/mV in “Membrane Potential” mode with “gain” set to 1, and the Bessel filter was set to 30 kHz. […]

iPSC-RPE (Z8) = experiment: Extracellular EIS of iPSC-RPE response to apical ATP in perfusion chamber versus Ussing chamber; type: cell-based, human
Method: EIS measurements were performed with an Autolab PGSTAT204 with a FRA32M […] (Utrecht, Netherlands). The device was controlled with the provided NOVA 2.1.5 software to perform frequency sweeps from 0.1 Hz to 10 kHz. The NOVA software was used to send up to 5 simultaneous frequencies spaced to approximately 5 unique measurements per decade. The PGSTAT working electrode was connected to the working electrode and counter electrode; the sense and reference electrodes were connected to the basal and apical baths through the Ringer-based agar bridges (connected to Ag|AgClreference electrodes in a saturated KCl bath), respectively.
Chamber design and extracellular epithelial properties: A custom device was assembled to rapidly and noninvasively evaluate the evoked responses and recovery of RPE to extracellular ATP (FIG. 4.3).
The “perfusion” chamber in FIG. 8A was created using the same Acrylic material as the Ussing chamber but was designed to interface with an intact, 12-well Transwell insert (Corning costar 3460). Ag|AgCl wires were used as the working and counter electrodes. These electrodes were shaped into a symmetric ring of maximum diameter that fits inside the chamber and placed as far from the epithelia as possible to maximize uniformity of the current flux across the tissue. The sense and reference electrodes (used to measure TEP) were single-junction KCl reference electrodes. The KCl reference electrode was constructed with an Ag|AgCl wire that was inserted in a glass body (1.5 mm outer diameter) and backfilled with 3 M KCl. The terminus of these electrodes was made of a Vycor frit that enabled electrical contact between the 3 M KCl solution and the perfusate. Ag|AgCl electrodes were selected due to their rapid and reversible redox reactions, and the bridges were designed to minimize the effect of drifting Cl− ion concentrations on the electrode junction potential. The sense and reference electrodes were inserted through the cylinders extruding through the top of the device such that they were positioned as close as possible to the tissue. The design of the Acrylic cylinders included a kinematic constraint for the electrodes to ensure that the distance between the tissue and voltage-sensing probes was consistent across all experiments.
For example, the magnitudes of extracellular tissue properties in normal Ringer's solution should be compared.
Furthermore, to ensure that the perfusion device can maintain the health and function of epithelia during long experiments, a simple experiment was devised to last at least 45 min; sufficient for rigorous RPE experiments performed in literature ([39′], [7′]). During this experiment the tissues were briefly exposed (approximately 10 min) to 100 μM ATP at the apical membrane. […]

Nc1ncnc2c1ncn2[C@@H]1O[C@H](COP(=O)(O)OP(=O)(O)OP(=O)(O)O)[C@@H](O)[C@H]1O [ATP, adenosine triphosphate]
apical membrane resistance decrease (iPSC-derived RPE; 100 μM apical ATP exposure, sample 1): 62%
apical membrane resistance increase (iPSC-derived RPE; 100 μM apical ATP exposure, sample 2): 89%
apical membrane resistance increase (iPSC-derived RPE; 100 μM apical ATP exposure, sample 3): 139%
membrane-specific capacitance changes (iPSC-derived RPE; Sample 1): did not display ATP650-induced changes
membrane-specific capacitance changes (iPSC-derived RPE; Samples 2 and 3): concurrent reductions in apical capacitance and elevations in basolateral capacitance
depolarization of the apical membrane (Va) (iPSC-derived RPE; by the end of the ATP exposure, all three samples): approximately 20 mV
change in apical capacitance Ca (iPSC-derived RPE; during ATP administration): 12%
change in basolateral capacitance Cb (iPSC-derived RPE; during ATP administration): −6%
TER response (iPSC-derived RPE; during ATP exposure, 3P-Classical or exemplary method): decrease in TER
basolateral resistance (Rb) response (iPSC-derived RPE; during ATP exposure, Sample 3): expected reduction
shunt resistance (Rs) response (iPSC-derived RPE; during ATP exposure, all samples): rapid and substantial decrease
depolarization of the apical membrane (Va) (iPSC-derived RPE; first phase of the ATP-induced response, Sample 3): 10 mV
depolarization of the apical membrane (Va) (iPSC-derived RPE; first phase of the ATP-induced response, Samples 1 and 2): 20 mV
TEP response (iPSC-derived RPE; remainder of the ATP exposure, all three samples): increase in TEP
tissue capacitance (Ct) average decrease (iPSC-RPE (Z8); 100 μM apical ATP, about 10 min, Ussing chamber): 3%
tissue capacitance (Ct) average increase (iPSC-RPE (Z8); 100 μM apical ATP, about 10 min, perfusion chamber): 11%
time to return to within 95% of baseline after ATP (iPSC-RPE (Z8); both perfusion and Ussing chambers): ≤ 40 min
extracellular time constant ratio response (iPSC-RPE (Z8); during ATP exposure, samples 1, 2 and 3, Ussing chamber): increased in magnitude
